The results in this text go back to patent US12350270B2, “Antimalarial agents” (Merck Sharp & Dohme LLC, priority 2019, dated 2025).

The experiment relates to parasites (ring stage, in human red blood cell culture). As to the kind of experiment: Parasite LDH growth assay (antiparasite potency, Parasite Assay). Conditions: 0.7% rings, 2% haematocrit, 72 hours at 37° C., LDH readout of parasite growth. The format is cell-based, Plasmodium falciparum. As to the method:
Assessing Antiparasite Potency in a Parasite LDH Growth Assay (Parasite Assay)
The parasite stock was maintained at 4% haematocrit in RPMI-Hepes media buffered with sodium bicarbonate and supplemented with 5% heat inactivated human serum and 0.5% albumax.
On the day of assay set up, a blood smear of the parasite culture was Giemsa stained and counted. The parasitemia was adjusted to 0.7% rings and the haematocrit was diluted to 2% in RPMI-Hepes media buffered with sodium bicarbonate and supplemented with 5% heat inactivated human serum and 0.5% albumax. 30 ul of diluted parasites are then added into 10 ul of media+compound in pre-prepared Greiner TC assay plates. Parasite assay plates were placed in gassed humidified boxes in single layer and allowed to incubate at 37° C. for 72 hours. After 72 hours growth, assay plates are sealed with parafilm and frozen flat, in single file at −80° C. overnight. On the following day, assay plates are allowed to thaw at room temperature for 4 hours to which an LDH assay is performed to measure parasite growth.

The mark [1] stands for this setting: Plasmodium falciparum, Erythrocyte, 72 h.

Under setting [1], `CCC1(CC)CC(=O)N([C@@H]2CCOc3ccc(C(=O)N[C@@H]4c5ccccc5C[C@H]4O)cc32)C(=N)N1` [Example 5A, (R)-4-(4,4-diethyl-2-imino-6-oxotetrahydropyrimidin-1(2H)-yl)-N-((1R,2R)-2-hydroxy-2,3-dihydro-1H-inden-1-yl)chromane-6-carboxamide] yielded an EC50 of 5.9 nM.

For the molecule `CCC1(CC)CC(=O)N([C@@H]2CCOc3ccc(C(=O)N[C@H]4C[C@H](C(F)(F)F)Oc5ccccc54)cc32)C(=N)N1` [Example 6A, (R)-4-(4,4-diethyl-2-imino-6-oxotetrahydropyrimidin-1(2H)-yl)-N-((2R,4S)-2-(trifluoromethyl)chroman-4-yl)chromane-6-carboxamide], under setting [1], the response was half-maximal at 1.1 nM (EC50).

`CCC1(CC)CC(=O)N([C@@H]2CCOc3ccc(C(=O)N[C@@H]4C[C@@H](C(F)(F)F)Oc5ccccc54)cc32)C(=N)N1` [Example 6B, (R)-4-(4,4-diethyl-2-imino-6-oxotetrahydropyrimidin-1(2H)-yl)-N-((2S,4R)-2-(trifluoromethyl)chroman-4-yl)chromane-6-carboxamide] had a half-maximal effective concentration (EC50) under setting [1] of 8.8 nM.

The molecule `CCC1(CC)CC(=O)N([C@@H]2CCOc3ccc(C(=O)N[C@H]4CC(C)(C)Oc5ccc(F)cc54)cc32)C(=N)N1` [Example 7A, (R)-4-(4,4-diethyl-2-imino-6-oxotetrahydropyrimidin-1(2H)-yl)-N-((S)-6-fluoro-2,2-dimethylchroman-4-yl)chromane-6-carboxamide] returned an EC50 under setting [1] of 0.4 nM.

In turn, `CCC1(CC)CC(=O)N([C@@H]2CCOc3ccc(C(=O)N[C@@H]4CC(C)(C)Oc5ccc(F)cc54)cc32)C(=N)N1` [Example 7B, (R)-4-(4,4-diethyl-2-imino-6-oxotetrahydropyrimidin-1(2H)-yl)-N-((R)-6-fluoro-2,2-dimethylchroman-4-yl)chromane-6-carboxamide] gave an EC50 under setting [1] of 19 nM. This EC50 lies about 48-fold higher than the previous one.

Turning to `CC(C)[C@]1(C)CC(=O)N([C@@H]2CCOc3ccc(C(=O)N[C@H]4CC(C)(C)Oc5ccccc54)cc32)C(=N)N1` [Example 10A, (R)-N-((S)-2,2-dimethylchroman-4-yl)-4-((S)-2-imino-4-isopropyl-4-methyl-6-oxotetrahydropyrimidin-1(2H)-yl)chromane-6-carboxamide], the EC50 under setting [1] amounted to 0.5 nM. This EC50 lies about 38-fold lower than the previous one.

As to `CC(C)[C@]1(C)CC(=O)N([C@@H]2CCOc3ccc(C(=O)N[C@@H]4c5ccccc5OC(C)(C)C4O)cc32)C(=N)N1` (stereo partly drawn) [Example 11B, (4R)-N-(3-hydroxy-2,2-dimethylchroman-4-yl)-4-((S)-2-imino-4-isopropyl-4-methyl-6-oxotetrahydropyrimidin-1(2H)-yl)chromane-6-carboxamide], under setting [1], the response was half-maximal at 84 nM (EC50).

The molecule `CC1(C)CC(=O)N([C@@H]2CCOc3ccc(C(=O)N[C@H]4CC(C)(C)Oc5ccccc54)cc32)C(=N)N1` [Example 12A, (R)-N-((S)-2,2-dimethylchroman-4-yl)-4-(2-imino-4,4-dimethyl-6-oxotetrahydropyrimidin-1(2H)-yl)chromane-6-carboxamide] came in with an EC50 of 1.1 nM.

In the case of `CCC1(CC)CC(=O)N([C@@H]2CCOc3ccc(C(=O)N[C@H]4CC(C)(C)Oc5ccc(Br)cc54)cc32)C(=N)N1` [Example 14A, (R)-N-((S)-6-bromo-2,2-dimethylchroman-4-yl)-4-(4,4-diethyl-2-imino-6-oxotetrahydropyrimidin-1(2H)-yl)chromane-6-carboxamide], a half-maximal effect under setting [1] (EC50) was put at 1 nM.

As for `CCC1(CC)CC(=O)N([C@@H]2CCOc3ccc(C(=O)N[C@@H]4c5cc(Br)ccc5OC(C)(C)[C@H]4O)cc32)C(=N)N1` [Example 15A, (R)-N-((3S,4R)-6-bromo-3-hydroxy-2,2-dimethylchroman-4-yl)-4-(4,4-diethyl-2-imino-6-oxotetrahydropyrimidin-1(2H)-yl)chromane-6-carboxamide], the response under setting [1] was half-maximal at 0.3 nM (EC50).

The molecule `CCC1(CC)CC(=O)N([C@@H]2CC(COC)Oc3ccc(C(=O)N[C@@H]4c5ccccc5OC(C)(C)[C@H]4O)cc32)C(=N)N1` (stereo partly drawn) [Example 18A, (4R)-4-(4,4-diethyl-2-imino-6-oxotetrahydropyrimidin-1(2H)-yl)-N-((3S,4R)-3-hydroxy-2,2-dimethylchroman-4-yl)-2-(methoxymethyl)chromane-6-carboxamide] displayed an EC50 under setting [1] of 0.8 nM.

Turning to `CCC1(CC)CC(=O)N([C@@H]2CCOc3ccc(C(=O)N[C@@H]4c5cc(Cl)ccc5OC(C)(C)[C@H]4O)cc32)C(=N)N1` [Example 19A, (R)-N-((3S,4R)-6-chloro-3-hydroxy-2,2-dimethylchroman-4-yl)-4-(4,4-diethyl-2-imino-6-oxotetrahydropyrimidin-1(2H)-yl)chromane-6-carboxamide], under setting [1], the EC50 is 0.3 nM.

Under setting [1], `CCC1(CC)CC(=O)N([C@@H]2CCOc3ccc(C(=O)N[C@@H]4c5cc(C#N)ccc5OC(C)(C)[C@H]4O)cc32)C(=N)N1` [Example 20A, (R)-N-((3S,4R)-6-cyano-3-hydroxy-2,2-dimethylchroman-4-yl)-4-(4,4-diethyl-2-imino-6-oxotetrahydropyrimidin-1(2H)-yl)chromane-6-carboxamide] came in with an EC50 of 0.8 nM.

As for `CCC1(CC)CC(=O)N([C@@H]2CCOc3ccc(C(=O)N[C@H]4CC(C)(C)Oc5ccc(C#N)cc54)cc32)C(=N)N1` [Example 21A, (R)-N-((S)-6-cyano-2,2-dimethylchroman-4-yl)-4-(4,4-diethyl-2-imino-6-oxotetrahydropyrimidin-1(2H)-yl)chromane-6-carboxamide], the EC50 under setting [1] was determined as 0.8 nM.

For `CCC1(CC)CC(=O)N([C@@H]2CC3(COC3)Oc3ccc(C(=O)N[C@H]4CC(C)(C)Oc5ccccc54)cc32)C(=N)N1` [Example 22A, (R)-4-(4,4-diethyl-2-imino-6-oxotetrahydropyrimidin-1(2H)-yl)-N-((S)-2,2-dimethylchroman-4-yl)spiro[chromane-2,3′-oxetane]-6-carboxamide], the response under setting [1] was half-maximal at 0.7 nM (EC50). The EC50 values of the last two molecules are within 1.5-fold of each other.

The molecule `CCC1(CC)CC(=O)N([C@@H]2CC3(COC3)Oc3ccc(C(=O)N[C@@H]4c5ccccc5C[C@H]4O)cc32)C(=N)N1` [Example 23A, (R)-4-(4,4-diethyl-2-imino-6-oxotetrahydropyrimidin-1(2H)-yl)-N-((1R,2R)-2-hydroxy-2,3-dihydro-1H-inden-1-yl)spiro[chromane-2,3′-oxetane]-6-carboxamide] came in with an EC50 under setting [1] of 5 nM.

For `CCC1(CC)CC(=O)N([C@@H]2CC3(COC3)Oc3ccc(C(=O)N[C@@H]4c5ccccc5OC(C)(C)[C@H]4O)cc32)C(=N)N1` [Example 24A, (R)-4-(4,4-diethyl-2-imino-6-oxotetrahydropyrimidin-1(2H)-yl)-N-((3S,4R)-3-hydroxy-2,2-dimethylchroman-4-yl)spiro[chromane-2,3′-oxetane]-6-carboxamide], under setting [1], the EC50 worked out at 9.3 nM.

In turn, `CCC1(CC)CC(=O)N([C@@H]2CCOc3ccc(C(=O)N[C@@H]4c5cc(F)ccc5OC(C)(C)[C@H]4O)cc32)C(=N)N1` [Example 25A, (R)-4-(4,4-diethyl-2-imino-6-oxotetrahydropyrimidin-1(2H)-yl)-N-((3S,4R)-6-fluoro-3-hydroxy-2,2-dimethylchroman-4-yl)chromane-6-carboxamide] returned an EC50 under setting [1] of 0.5 nM.

Turning to `CCC1(CC)CC(=O)N([C@@H]2CCOc3ccc(C(=O)N[C@H]4c5cc(F)ccc5OC(C)(C)[C@@H]4O)cc32)C(=N)N1` [Example 25B, (R)-4-(4,4-diethyl-2-imino-6-oxotetrahydropyrimidin-1(2H)-yl)-N-((3R,4S)-6-fluoro-3-hydroxy-2,2-dimethylchroman-4-yl)chromane-6-carboxamide], under setting [1], the midpoint of the response, the EC50, lay at 59.8 nM.

`CCC1(CC)CC(=O)N([C@@H]2CCOc3c(Cl)cc(C(=O)N[C@H]4CC(C)(C)Oc5ccccc54)cc32)C(=N)N1` [Example 26A, (R)-8-chloro-4-(4,4-diethyl-2-imino-6-oxotetrahydropyrimidin-1(2H)-yl)-N-((S)-2,2-dimethylchroman-4-yl)chromane-6-carboxamide]: under setting [1], the EC50 worked out at 1.3 nM.

With `CCC1(CC)CC(=O)N([C@@H]2CCOc3c(Cl)cc(C(=O)N[C@@H]4CC(C)(C)Oc5ccccc54)cc32)C(=N)N1` [Example 26B, (R)-8-chloro-4-(4,4-diethyl-2-imino-6-oxotetrahydropyrimidin-1(2H)-yl)-N-((R)-2,2-dimethylchroman-4-yl)chromane-6-carboxamide], the EC50 under setting [1] is 180 nM.

The molecule `CCC1(CC)CC(=O)N([C@@H]2CCOc3c(C#N)cc(C(=O)N[C@H]4CC(C)(C)Oc5ccccc54)cc32)C(=N)N1` [Example 27A, (R)-8-cyano-4-(4,4-diethyl-2-imino-6-oxotetrahydropyrimidin-1yl)-N-((S)-2,2-dimethylchroman-4-yl)chromane-6-carboxamide] displayed an EC50 under setting [1] of 1.3 nM. Compared with the last molecule, the EC50 is about 140-fold lower.

For `CCC1(CC)CC(=O)N([C@@H]2CCOc3c(C#N)cc(C(=O)N[C@@H]4c5ccccc5OC(C)(C)[C@H]4O)cc32)C(=N)N1` [Example 28A, (R)-8-cyano-4-(4,4-diethyl-2-imino-6-oxotetrahydropyrimidin-1(2H)-yl)-N-((3S,4R)-3-hydroxy-2,2-dimethylchroman-4-yl)chromane-6-carboxamide], the EC50 under setting [1] is 1.8 nM.

The molecule `CCC1(CC)CC(=O)N([C@@H]2CCOc3c(Cl)cc(C(=O)N[C@@H]4c5ccccc5OC(C)(C)[C@H]4O)cc32)C(=N)N1` [Example 29A, (R)-8-chloro-4-(4,4-diethyl-2-imino-6-oxotetrahydropyrimidin-1(2H)-yl)-N-((3S,4R)-3-hydroxy-2,2-dimethylchroman-4-yl)chromane-6-carboxamide] came in with an EC50 under setting [1] of 1 nM.

Usually EC50 stands for the concentration giving half of the maximal effect. Lower therefore signals higher potency in that assay.
